Measurements published in publication PMC7156458, “Synthetic biology based construction of biological activity-related library of fungal decalin-containing diterpenoid pyrones” (Nature Communications, 2020).

Molecular target: Aβ42 (Homo sapiens, UniProt P05067)
Assay: Th-T (thioflavin-T) assay of Aβ42 aggregation
Format: biochemical
Details: for Th-T fluorescence, mean of three wells: Aβ42 aggregation time course

Chain of Aβ42 (P05067 672-713): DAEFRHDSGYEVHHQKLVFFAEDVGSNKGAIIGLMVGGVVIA

Question: Which results are given for `C=C1CC[C@@H]2[C@](C)(CC[C@H]3O[C@H](C=C(C)C)C[C@@]23C)[C@@H]1Cc1c(OC)oc(CO)c(C(=O)OC)c1=O` [Compound 21]?
Answer: first Th-T assay result (Aβ42 (10 μM) ± DPPs (20 μM), room temperature): clearly delayed nuclei formation of Aβ42; Th-T fluorescence, mean of three wells (reading M117): 1.039; Th-T fluorescence, mean of three wells (reading M118): 1.038; Th-T fluorescence, mean of three wells (reading M119): 1.047; Th-T fluorescence, mean of three wells (reading M120): 1.046; Th-T fluorescence, mean of three wells (reading M121): 1.028; Th-T fluorescence, mean of three wells (reading M122): 1.042; Th-T fluorescence, mean of three wells (reading M123): 1.04; Th-T fluorescence, mean of three wells (reading M124): 1.043; Th-T fluorescence, mean of three wells (reading M125): 1.031; Th-T fluorescence, mean of three wells (reading M126): 1.048; Th-T fluorescence, mean of three wells (reading M127): 1.027; Th-T fluorescence, mean of three wells (reading M128): 1.04; Th-T fluorescence, mean of three wells (reading M129): 1.041; Th-T fluorescence, mean of three wells (reading M130): 1.048; nucleation phase of Aβ42 delayed until (Th-T fluorescence of Aβ42 alone began to increase after 4 h): 13 h; Th-T fluorescence, mean of three wells (Fig. 7a) (column suffix _10, measurement M19): 0.2262; Th-T fluorescence, mean of three wells (Fig. 7a) (column suffix _10, measurement M20): 0.2276; Th-T fluorescence, mean of three wells (Fig. 7a) (column suffix _10, measurement M21): 0.2311; Th-T fluorescence, mean of three wells (Fig. 7a) (column suffix _10, measurement M22): 0.2318; Th-T fluorescence, mean of three wells (Fig. 7a) (column suffix _10, measurement M23): 0.2319; Th-T fluorescence, mean of three wells (Fig. 7a) (column suffix _10, measurement M24): 0.2323; Th-T fluorescence, mean of three wells (Fig. 7a) (column suffix _10, measurement M25): 0.2332; Th-T fluorescence, mean of three wells (Fig. 7a) (column suffix _10, measurement M26): 0.2371; Th-T fluorescence, mean of three wells (Fig. 7a) (column suffix _10, measurement M27): 0.238; Th-T fluorescence, mean of three wells (Fig. 7a) (column suffix _10, measurement M28): 0.2386; Th-T fluorescence, mean of three wells (Fig. 7a) (column suffix _10, measurement M29): 0.2373; Th-T fluorescence, mean of three wells (Fig. 7a) (column suffix _10, measurement M30): 0.2428; Th-T assay signal, mean of three wells (Fig. 7a) (column suffix _10, reading M1): 0.2407; Th-T assay signal, mean of three wells (Fig. 7a) (column suffix _10, reading M2): 0.2463; Th-T assay signal, mean of three wells (Fig. 7a) (column suffix _10, reading M3): 0.2449; Th-T assay signal, mean of three wells (Fig. 7a) (column suffix _10, reading M4): 0.2384; Th-T assay signal, mean of three wells (Fig. 7a) (column suffix _10, reading M5): 0.2363; Th-T assay signal, mean of three wells (Fig. 7a) (column suffix _10, reading M6): 0.2279; Th-T assay signal, mean of three wells (Fig. 7a) (column suffix _10, reading M7): 0.2237; Th-T assay signal, mean of three wells (Fig. 7a) (column suffix _10, reading M8): 0.2225; Th-T assay signal, mean of three wells (Fig. 7a) (column suffix _10, reading M9): 0.2211; Th-T assay signal, mean of three wells (Fig. 7a) (column suffix _10, reading M10): 0.2184; Th-T assay signal, mean of three wells (Fig. 7a) (column suffix _10, reading M11): 0.2174; Th-T assay signal, mean of three wells (Fig. 7a) (column suffix _10, reading M12): 0.2206; Th-T assay signal, mean of three wells (Fig. 7a) (column suffix _10, reading M13): 0.2193; Th-T assay signal, mean of three wells (Fig. 7a) (column suffix _10, reading M14): 0.2201; Th-T assay signal, mean of three wells (Fig. 7a) (column suffix _10, reading M15): 0.222; Th-T assay signal, mean of three wells (Fig. 7a) (column suffix _10, reading M16): 0.2237; Th-T assay signal, mean of three wells (Fig. 7a) (column suffix _10, reading M17): 0.228; Th-T assay signal, mean of three wells (Fig. 7a) (column suffix _10, reading M18): 0.2253; Fig. 7a Th-T reading, mean of three wells (column suffix _10, reading M85): 1.478; Fig. 7a Th-T reading, mean of three wells (column suffix _10, reading M86): 1.509; Fig. 7a Th-T reading, mean of three wells (column suffix _10, reading M87): 1.557; Fig. 7a Th-T reading, mean of three wells (column suffix _10, reading M88): 1.549; Fig. 7a Th-T reading, mean of three wells (column suffix _10, reading M89): 1.5658; Fig. 7a Th-T reading, mean of three wells (column suffix _10, reading M90): 1.591; Fig. 7a Th-T reading, mean of three wells (column suffix _10, reading M91): 1.5663; Fig. 7a Th-T reading, mean of three wells (column suffix _10, reading M92): 1.592; Fig. 7a Th-T reading, mean of three wells (column suffix _10, reading M93): 1.631; Fig. 7a Th-T reading, mean of three wells (column suffix _10, reading M94): 1.598; Fig. 7a Th-T reading, mean of three wells (column suffix _10, reading M95): 1.661; Fig. 7a Th-T reading, mean of three wells (column suffix _10, reading M96): 1.586; Fig. 7a Th-T reading, mean of three wells (column suffix _10, reading M97): 1.595; Fig. 7a Th-T reading, mean of three wells (column suffix _10, reading M98): 1.638; Fig. 7a Th-T reading, mean of three wells (column suffix _10, reading M99): 1.631; Fig. 7a Th-T reading, mean of three wells (column suffix _10, reading M100): 1.623; Fig. 7a Th-T reading, mean of three wells (column suffix _10, reading M101): 1.644; Fig. 7a Th-T reading, mean of three wells (column suffix _10, reading M102): 1.607; Fig. 7a Th-T reading, mean of three wells (column suffix _10, reading M103): 1.621; Fig. 7a Th-T reading, mean of three wells (column suffix _10, reading M104): 1.621; Fig. 7a Th-T reading, mean of three wells (column suffix _10, reading M105): 1.667; Fig. 7a Th-T reading, mean of three wells (column suffix _10, reading M106): 1.671; Th-T fluorescence, mean of three wells (Fig. 7a) (column suffix _20, measurement M19): 0.1942; Th-T fluorescence, mean of three wells (Fig. 7a) (column suffix _20, measurement M20): 0.198; Th-T fluorescence, mean of three wells (Fig. 7a) (column suffix _20, measurement M21): 0.1975; Th-T fluorescence, mean of three wells (Fig. 7a) (column suffix _20, measurement M22): 0.1979; Th-T fluorescence, mean of three wells (Fig. 7a) (column suffix _20, measurement M23): 0.1984; Th-T fluorescence, mean of three wells (Fig. 7a) (column suffix _20, measurement M24): 0.2012; Th-T fluorescence, mean of three wells (Fig. 7a) (column suffix _20, measurement M25): 0.2016; Th-T fluorescence, mean of three wells (Fig. 7a) (column suffix _20, measurement M26): 0.2021; Th-T fluorescence, mean of three wells (Fig. 7a) (column suffix _20, measurement M27): 0.2014; Th-T fluorescence, mean of three wells (Fig. 7a) (column suffix _20, measurement M28): 0.2017; Th-T fluorescence, mean of three wells (Fig. 7a) (column suffix _20, measurement M29): 0.2027; Th-T assay signal, mean of three wells (Fig. 7a) (column suffix _20, reading M1): 0.2262; Th-T assay signal, mean of three wells (Fig. 7a) (column suffix _20, reading M2): 0.223; Th-T assay signal, mean of three wells (Fig. 7a) (column suffix _20, reading M3): 0.2155; Th-T assay signal, mean of three wells (Fig. 7a) (column suffix _20, reading M4): 0.2051; Th-T assay signal, mean of three wells (Fig. 7a) (column suffix _20, reading M5): 0.2019; Th-T assay signal, mean of three wells (Fig. 7a) (column suffix _20, reading M6): 0.1953; Th-T assay signal, mean of three wells (Fig. 7a) (column suffix _20, reading M7): 0.1945; Th-T assay signal, mean of three wells (Fig. 7a) (column suffix _20, reading M8): 0.1954; Th-T assay signal, mean of three wells (Fig. 7a) (column suffix _20, reading M9): 0.1943; Th-T assay signal, mean of three wells (Fig. 7a) (column suffix _20, reading M10): 0.1989; Th-T assay signal, mean of three wells (Fig. 7a) (column suffix _20, reading M11): 0.1963; Th-T assay signal, mean of three wells (Fig. 7a) (column suffix _20, reading M12): 0.198; Th-T assay signal, mean of three wells (Fig. 7a) (column suffix _20, reading M13): 0.1957; Th-T assay signal, mean of three wells (Fig. 7a) (column suffix _20, reading M14): 0.1953; Th-T assay signal, mean of three wells (Fig. 7a) (column suffix _20, reading M15): 0.1958; Th-T assay signal, mean of three wells (Fig. 7a) (column suffix _20, reading M16): 0.1968; Th-T assay signal, mean of three wells (Fig. 7a) (column suffix _20, reading M17): 0.1967; Th-T assay signal, mean of three wells (Fig. 7a) (column suffix _20, reading M18): 0.1963; Fig. 7a Th-T reading, mean of three wells (column suffix _20, reading M85): 0.5666; Fig. 7a Th-T reading, mean of three wells (column suffix _20, reading M86): 0.5976; Fig. 7a Th-T reading, mean of three wells (column suffix _20, reading M87): 0.6445; Fig. 7a Th-T reading, mean of three wells (column suffix _20, reading M88): 0.6876; Fig. 7a Th-T reading, mean of three wells (column suffix _20, reading M89): 0.7312; Fig. 7a Th-T reading, mean of three wells (column suffix _20, reading M90): 0.7695; Fig. 7a Th-T reading, mean of three wells (column suffix _20, reading M91): 0.7994; Fig. 7a Th-T reading, mean of three wells (column suffix _20, reading M92): 0.8356; Fig. 7a Th-T reading, mean of three wells (column suffix _20, reading M93): 0.8329; Fig. 7a Th-T reading, mean of three wells (column suffix _20, reading M94): 0.8638; Fig. 7a Th-T reading, mean of three wells (column suffix _20, reading M95): 0.8786; Fig. 7a Th-T reading, mean of three wells (column suffix _20, reading M96): 0.9004; Fig. 7a Th-T reading, mean of three wells (column suffix _20, reading M97): 0.8843; Fig. 7a Th-T reading, mean of three wells (column suffix _20, reading M98): 0.903; Fig. 7a Th-T reading, mean of three wells (column suffix _20, reading M99): 0.9153; Fig. 7a Th-T reading, mean of three wells (column suffix _20, reading M100): 0.9048
